How the values were obtained:
Format in all cases: in vivo
[1] = test system: foxtail, giant (Setaria faberii); test: Test A postemergence, giant foxtail; settings: 0 to 100 scale; for Plant response rating, Foxtail, Giant: 125 g ai/ha, 0 no effect, 100 complete control; for Foxtail, Giant plant response rating: 500 g ai/ha, 0 is no effect, 100 is complete control
In short: (§1)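 Ratings reflect visual comparison with untreated controls roughly 10 d after greenhouse application, 0 meaning no effect and 100 complete control. Treatment was by directed soil spray at planting or by spray onto one- to two-leaf plants in loam/sand pots.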

[2] = test system: ragweed (common ragweed, Ambrosia elatior); test: Test A postemergence, ragweed; settings: 0 to 100 scale; for Plant response rating, Ragweed: 125 g ai/ha, 0 no effect, 100 complete control; for Ragweed plant response rating: 500 g ai/ha, 0 is no effect, 100 is complete control
In short: as §1

[3] = test system: blackgrass (Alopecurus myosuroides); test: Test A postemergence, blackgrass; settings: 0 to 100 scale; for Plant response rating, Blackgrass: 125 g ai/ha, 0 no effect, 100 complete control; for Blackgrass plant response rating: 500 g ai/ha, 0 is no effect, 100 is complete control
In short: as §1

[4] = test system: pigweed (Amaranthus retroflexus); test: Test A postemergence, pigweed; settings: 0 to 100 scale; for Plant response rating, Pigweed: 125 g ai/ha, 0 no effect, 100 complete control; for Pigweed plant response rating: 500 g ai/ha, 0 is no effect, 100 is complete control
In short: as §1

[5] = test system: ducksalad (Heteranthera limosa); test: Test B flooded paddy test, ducksalad; settings: Flood, 250 g ai/ha, applied to paddy water, 2-leaf stage, visual evaluation after 13 to 15 d
In short: (§2)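 Visual injury scores run from 0 (no effect) to 100 (complete control), assigned by comparison with controls 13 to 15 d after treatment. Treatment went into floodwater standing 3 cm over the soil of pots holding 2-leaf plants.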

[6] = test system: ryegrass, Italian (Lolium multiflorum); test: Test A postemergence, Italian ryegrass; settings: 0 to 100 scale; for Plant response rating, Ryegrass, Italian: 125 g ai/ha, 0 no effect, 100 complete control; for Ryegrass, Italian plant response rating: 500 g ai/ha, 0 is no effect, 100 is complete control
In short: as §1

[7] = test system: foxtail, giant (Setaria faberii); test: Test A preemergence, giant foxtail; settings: 0 to 100 scale, 0 is no effect, 100 is complete control
In short: as §1

[8] = test system: barnyardgrass (Echinochloa crus-galli); test: Test B flooded paddy test, barnyardgrass; settings: Flood, 250 g ai/ha, applied to paddy water, 2-leaf stage, visual evaluation after 13 to 15 d
In short: as §2

corn (Zea mays) = test: Test A postemergence, corn; settings: 0 to 100 scale; for Plant response rating, Corn: 125 g ai/ha, 0 no effect, 100 complete control; for Corn plant response rating: 500 g ai/ha, 0 is no effect, 100 is complete control
In short: as §1

kochia (Kochia scoparia) [9] = test: Test A postemergence, kochia; settings: 0 to 100 scale; for Plant response rating, Kochia: 125 g ai/ha, 0 no effect, 100 complete control; for Kochia plant response rating: 500 g ai/ha, 0 is no effect, 100 is complete control
In short: as §1

rice (Oryza sativa) = test: Test B flooded paddy test, rice; settings: Flood, 250 g ai/ha, applied to paddy water, 2-leaf stage, visual evaluation after 13 to 15 d
In short: as §2

[10] = test system: pigweed (Amaranthus retroflexus); test: Test A preemergence, pigweed; settings: 0 to 100 scale, 0 is no effect, 100 is complete control
In short: as §1

[11] = test system: barnyardgrass (Echinochloa crus-galli); test: Test A postemergence, barnyardgrass; settings: 0 to 100 scale; for Plant response rating, Barnyardgrass: 125 g ai/ha, 0 no effect, 100 complete control; for Barnyardgrass plant response rating: 500 g ai/ha, 0 is no effect, 100 is complete control
In short: as §1

[12] = test system: wheat (Triticum aestivum); test: Test A postemergence, wheat; settings: 0 to 100 scale; for Plant response rating, Wheat: 125 g ai/ha, 0 no effect, 100 complete control; for Wheat plant response rating: 500 g ai/ha, 0 is no effect, 100 is complete control
In short: as §1

[13] = test system: ragweed (common ragweed, Ambrosia elatior); test: Test A preemergence, ragweed; settings: 0 to 100 scale, 0 is no effect, 100 is complete control
In short: as §1

[14] = test system: galium (catchweed bedstraw, Galium aparine); test: Test A postemergence, galium; settings: 0 to 100 scale; for Plant response rating, Galium: 125 g ai/ha, 0 no effect, 100 complete control; for Galium plant response rating: 500 g ai/ha, 0 is no effect, 100 is complete control
In short: as §1

[15] = test system: sedge, umbrella (small-flower umbrella sedge, Cyperus difformis); test: Test B flooded paddy test, umbrella sedge; settings: Flood, 250 g ai/ha, applied to paddy water, 2-leaf stage, visual evaluation after 13 to 15 d
In short: as §2

[16] = test system: barnyardgrass (Echinochloa crus-galli); test: Test A preemergence, barnyardgrass; settings: 0 to 100 scale, 0 is no effect, 100 is complete control
In short: as §1

kochia (Kochia scoparia) [17] = test: Test A preemergence, kochia; settings: 0 to 100 scale, 0 is no effect, 100 is complete control
In short: as §1

[18] = test system: ryegrass, Italian (Lolium multiflorum); test: Test A preemergence, Italian ryegrass; settings: 0 to 100 scale, 0 is no effect, 100 is complete control
In short: as §1

Q: Which results are given for `CC[C@@H](Nc1ncc(C(F)(F)F)c(N)n1)c1cc2ccc(F)cc2s1` [Compound 48]?
A: Plant response rating, Foxtail, Giant [1]: 10; Foxtail, Giant plant response rating [1]: 30; Plant response rating, Ragweed [2]: 20; Ragweed plant response rating [2]: 70; Plant response rating, Blackgrass [3]: 30; Blackgrass plant response rating [3]: 30; Plant response rating, Pigweed [4]: 90; Pigweed plant response rating [4]: 100; Plant response rating, Ducksalad (0 to 100 scale, 0 is no effect, 100 is complete control) [5]: 0; Plant response rating, Ryegrass, Italian [6]: 0; Ryegrass, Italian plant response rating [6]: 40; Foxtail, Giant plant response rating ([7]; 125 g ai/ha): 60; Foxtail, Giant plant response rating ([7]; 500 g ai/ha): 90; Plant response rating, Barnyardgrass (0 to 100 scale, 0 is no effect, 100 is complete control) [8]: 0; Plant response rating, Corn (corn (Zea mays)): 0; Corn plant response rating (corn (Zea mays)): 30; Plant response rating, Kochia (kochia (Kochia scoparia) [9]): 30; Kochia plant response rating (kochia (Kochia scoparia) [9]): 90; Plant response rating, Rice (0 to 100 scale, 0 is no effect, 100 is complete control) (rice (Oryza sativa)): 0; Pigweed plant response rating ([10]; 125 g ai/ha): 60; Pigweed plant response rating ([10]; 500 g ai/ha): 100; Plant response rating, Barnyardgrass [11]: 0; Barnyardgrass plant response rating [11]: 30; Plant response rating, Wheat [12]: 0; Wheat plant response rating [12]: 0; Ragweed plant response rating ([13]; 125 g ai/ha): 30; Ragweed plant response rating ([13]; 500 g ai/ha): 100; Plant response rating, Galium [14]: 60; Galium plant response rating [14]: 90; Plant response rating, Sedge, Umbrella (0 to 100 scale, 0 is no effect, 100 is complete control) [15]: 0; Barnyardgrass plant response rating ([16]; 125 g ai/ha): 0; Barnyardgrass plant response rating ([16]; 500 g ai/ha): 40; Kochia plant response rating (kochia (Kochia scoparia) [17]; 125 g ai/ha): 0; Kochia plant response rating (kochia (Kochia scoparia) [17]; 500 g ai/ha): 80; Ryegrass, Italian plant response rating ([18]; 125 g ai/ha): 0; Ryegrass, Italian plant response rating ([18]; 500 g ai/ha): 60

Q: What does the source list for `CC[C@H](Nc1ncc(C(F)(F)F)c(N)n1)c1cc2ccc(F)cc2s1` [Compound 49]?
A: Plant response rating, Foxtail, Giant [1]: 0; Foxtail, Giant plant response rating [1]: 10; Plant response rating, Ragweed [2]: 0; Ragweed plant response rating [2]: 0; Plant response rating, Blackgrass [3]: 0; Blackgrass plant response rating [3]: 0; Plant response rating, Pigweed [4]: 0; Pigweed plant response rating [4]: 50; Plant response rating, Ducksalad (0 to 100 scale, 0 is no effect, 100 is complete control) [5]: 0; Plant response rating, Ryegrass, Italian [6]: 0; Ryegrass, Italian plant response rating [6]: 0; Foxtail, Giant plant response rating ([7]; 125 g ai/ha): 0; Foxtail, Giant plant response rating ([7]; 500 g ai/ha): 0; Plant response rating, Barnyardgrass (0 to 100 scale, 0 is no effect, 100 is complete control) [8]: 0; Plant response rating, Corn (corn (Zea mays)): 0; Corn plant response rating (corn (Zea mays)): 0; Plant response rating, Kochia (kochia (Kochia scoparia) [9]): 0; Kochia plant response rating (kochia (Kochia scoparia) [9]): 0; Plant response rating, Rice (0 to 100 scale, 0 is no effect, 100 is complete control) (rice (Oryza sativa)): 0; Pigweed plant response rating ([10]; 125 g ai/ha): 0; Pigweed plant response rating ([10]; 500 g ai/ha): 0; Plant response rating, Barnyardgrass [11]: 0; Barnyardgrass plant response rating [11]: 0; Plant response rating, Wheat [12]: 0; Wheat plant response rating [12]: 0; Ragweed plant response rating ([13]; 125 g ai/ha): 0; Ragweed plant response rating ([13]; 500 g ai/ha): 0; Plant response rating, Galium [14]: 0; Galium plant response rating [14]: 0; Plant response rating, Sedge, Umbrella (0 to 100 scale, 0 is no effect, 100 is complete control) [15]: 0; Barnyardgrass plant response rating ([16]; 125 g ai/ha): 0; Barnyardgrass plant response rating ([16]; 500 g ai/ha): 0; Kochia plant response rating (kochia (Kochia scoparia) [17]; 125 g ai/ha): 0; Kochia plant response rating (kochia (Kochia scoparia) [17]; 500 g ai/ha): 0; Ryegrass, Italian plant response rating ([18]; 125 g ai/ha): 0; Ryegrass, Italian plant response rating ([18]; 500 g ai/ha): 0

Reference: patent publication US20220119354A1, “DIAMINO-SUBSTITUTED PYRIDINES AND PYRIMIDINES AS HERBICIDES” (FMC Corporation, priority 2019, published 2022)
